Source: patent publication US10376552B2, “Memory improving composition comprising arillus longan, semen nelumbinis, poria and semen juglandis” (priority 2015, dated 2019)

Key:
[1] = system: scopolamine hydrobromide induced memory acquired disorder in mice; experiment: Step-down test; format: in vivo, Kunming mice; settings: 0.1 mg/kg
Protocol: (§1) Mice were randomly divided into 5 groups, namely, normal control group, model group, low dosage group, high dosage group, positive control drug Huperzine A group (0.1 mg/kg). The mice were intragastrically administered once daily (0.2 mL/10 g). After 30 consecutive days, except the normal control group, the memory acquired disorder model of mice was replicated respectively with 5 mg/kg of scopolamine hydrobromide, and the learning performance of mice was determined with the step-down test.
(§2) In accordance with technical requirements including “technical specifications of health food inspection and evaluation”, the dosage was calculated by conversion of the intended clinical daily dosage on the basis of the body surface area. When orally administered to mice, low and high dosages were arranged for each sample, respectively, which correspond to about 10 and 20 times of intended daily dosage for adults. Namely: low dosage group (1.3 g/kg), high dosage group (2.6 g/kg).
(§3) The time of the first jumping of mice (i.e., latency) and the times of jumping of mice within 5 minutes (i.e., errors times) were tested and recorded with jumping apparatus, and the latency and error times were used as the investigation indexes of the experiment.
60 screened healthy adult Kunming mice were used, with body weight (20-24) g, male, 12 […] in each group. Mice were randomly divided into 5 groups, namely, normal control group (C), model group (M), low dosage group (1.3 g/kg), high dosage (2.6 g/kg), positive control drug Huperzine A group (0.1 mg/kg). Except that the normal control group and model group were intragastrically administered with 0.5% CMCNA (0.2 mL/10 g), other groups were intragastrically administered with corresponding drugs once daily for 30 consecutive days. Training was started 1 h after administration in the morning on day 30. Except the normal control group, the memory acquired disorder model of mice was replicated respectively with 2 mg/kg scopolamine hydrobromide 20 minutes before training. Each group was administered in parallel, and the learning performance of mice was determined by step-down test. […]
(1) adaptive period: the animals were placed on the platform, at that time the electric fence was not energized, the latency of jumping down the platform was recorded, the animals were allowed to freely explore 10 s in the test box after jumping down the platform, and were then returned to the cage; […]
as §3, with “The learning performance was tested after 24 h. The” for “The”

[2] = system: scopolamine hydrobromide-induced mice memory acquired disorder model; experiment: Morris water maze, space exploration test; format: in vivo; settings: 0.1 mg/kg
Protocol: as §1, with “groups evenly,” for “groups,”, “scopolamine,” for “5 mg/kg of scopolamine hydrobromide,”, “Morris water maze test (scopolamine-induced orientation navigation and spatial memory experiment).” for “step-down test.”
as §2
(§4) As for the positive control drug Huperzine A, the clinical adult dosage is about 0.4 mg/day, and the dosage for mice is 0.06 mg/kg, which is calculated by conversion on the basis of the body surface area. 0.1 mg/kg was used in the present experiment.
(§5) Morris water maze test was carried out according to the method in references. The orientation navigation test was started from the 25th day, and lasted for 4 consecutive days. The time of finding the platform of mice within 90 s (the escape latency), swimming distance, the swimming time proportion in the quadrant of the original platform, times of crossing the location of the original platform (i.e., shuttle times), and the time of first arrival at the original platform were recorded.
(§6) Mice were randomly divided into 5 groups, namely, normal control group, model group, low dosage group (1.3 g/kg), high dosage group (2.6 g/kg), positive control drug Huperzine A group (0.1 mg/kg). The mice were intragastrically administered once daily (0.2 mL/10 g). After 30 consecutive days, except the normal control group, the memory acquired disorder model of mice was replicated respectively with scopolamine, and the learning performance of mice was determined with the Morris water maze test (scopolamine-induced orientation navigation and spatial memory experiment).
(§7) In this example, respective groups of animals were adaptively fed for 3 days before intragastrical administration. The normal control group and model control group were intragastrically administered once daily with equal volume of 0.5% CMCNA, respectively. The administration was carried out with a volume of 0.2 mL/10 g body weight for 30 consecutive days. Morris water maze test was carried out according to the method in literatures. The orientation navigation test was started from the 25th day, and lasted for 4 days. The time of finding the platform of mice within 90 s (the escape latency), swimming distance, the swimming time proportion in the quadrant of the original platform, times of crossing the location of the original platform (i.e., shuttle times), and the time of first arrival at the original platform were recorded.

[3] = clinical use as cholinesterase inhibitor; cited from earlier work
[4] = system: scopolamine memory acquired disorder model of mice; experiment: Morris water maze, orientation navigation test; format: in vivo; settings: 0.1 mg/kg
Protocol: as §6, with “groups evenly,” for “groups,”, “group,” for “group (1.3 g/kg),”, “group,” for “group (2.6 g/kg),”
as §2, §4, §5, §6, §7

In the case of `C/C=C1\[C@H]2C=C(C)C[C@]1(N)c1ccc(=O)[nH]c1C2` [Huperzine A], the Latency [1] is reported as 146.20 ± 99.97 s, the “error times compared with the model group” value ([1]; p<0.05) is reported as “significantly reduced” and the “latency compared with the model group” value ([1]; p<0.05) is reported as “significantly prolonged”. For the same compound, the Error times ([1]; within 5 minutes) was 1.00 ± 0.82, the Shuttle times [2] was 2.2 ± 0.5 and the “Time proportion of crossing the original quadrant” value [2] was 22.6 ± 7.9%. The “time of first arrival at the platform” value [2] was 27.0 ± 12.1 s, the “time of first arrival at the platform” value ([2]; p<0.05) was “significantly prolonging” and the “times of crossing the location of the original platform” value ([2]; p<0.05) was “significantly decreased”. The side-effects after ingestion [3] was “nausea, dizziness, sweating, abdominal pain, and blurred vision”, the swimming distance ([4]; Day 1) was 892.9 ± 226.6 cm and the swimming latency ([4]; Day 1) was 68.3 ± 15.6 s. It also gave a swimming distance ([4]; Day 2) of 747.2 ± 93.5 cm, a swimming latency ([4]; Day 2) of 59.1 ± 13.8 s and a swimming distance ([4]; Day 3) of 683.3 ± 112.8 cm. For the same compound, the swimming latency ([4]; Day 3) was 56.3 ± 13.1 s, the swimming distance ([4]; Day 4) was 669.6 ± 128.3 cm and the swimming latency ([4]; Day 4) was 48.8 ± 11.1 s.
